Key:
[1] = tested on: potential s-RNYs-target mRNAs; assay: Quantitative RT-PCR of potential s-RNYs-target mRNAs in PA-treated BMDMs; assay type: cell-based, mouse; conditions: of 32 mRNAs (about 62%), FIG. 11
Method: FIG. 11: Quantitative RT-PCR analysis of the potential s-RNYs-target mRNAs in BMDMs transfected with siAgo2, 2′-OMe-RNA antisense oligonucleotides (AS) to s-RNYs, or control. BMDMs were left unstimulated (black column) or stimulated with 0.25 mM of PA for 18 hr, and total RNA was isolated and analyzed. Data were normalized by U2 snRNA and are presented as mean and s.d. (n=6).
BMDMs and NIH-3T3 cells (ATCC) were transiently transfected for 48 hr with Lipofectamine 2000 (Invitrogen) according to the manufacturer's instructions. siRNAs were transfected at the final concentration of 24 nM, while 2′-OMe-RNA antisense oligonucleotides to s-RNYs (Eurogentec) were transfected at the final concentration of 100 nM. […]
RNA expression by quantitative RT-PCR was carried out by using standard procedures. […] For s-RNYs detection by quantitative RT-PCR a stem-loop quantitative RT-PCR method was used according to Chen et al. (Chen, C., et al. (2005). Nucleic acids research 33, e179). […] This method allows the detection of the s-RNYs derived from only the 5′ end of the precursor by quantitative RT-PCR analysis, namely the s-RNY1-5p and s-RNY3-5p from mouse and s-RNY1-5p, s-RNY3-5p, and s-RNY4-5p from human. Quantitative RT-PCRs using Sybr Green and TaqMan (Invitrogen) for cel-miR-39 were performed on a StepONE system (Applied Biosystem). […]

[2] = tested on: bone marrow-derived macrophages (BMDMs); assay: s-RNY expression in stimulated BMDMs, stem-loop quantitative RT-PCR; assay type: cell-based, mouse; conditions: for s-RNY expression: stimulus given alone
[3] = tested on: s-RNY1-3p binding sites (BS) from KFL2 mRNA sequence in NIH-3T3 cells; assay: Luciferase reporter assay with s-RNY1-3p binding sites from KLF2 mRNA; assay type: cell-based; conditions: PA treatment, FIG. 12C
From the text: FIG. 12: (A) RNA duplex expected to result from base pairing of KFL2 mRNA with s-RNY1-3p. A-U and G-C base pairs are represented by solid lines; G-U wobble base pairs are represented by dotted lines, shown herein as SEQ ID NOS 58 and 59, respectively. (B) The sequence of the predicted target site of KFL2 mRNA from the indicated species, shown herein as SEQ ID NOS 60-63, respectively. The s-RNY1-3p seed complementary sequence is enclosed by a black box. Nucleotide conservation across the species is indicated by asterisks. (C) Relative luciferase activity of reporter constructs containing two either wt or mutant s-RNY1-3p binding sites (BS) from KFL2 mRNA sequence in NIH-3T3 cells transfected with either 2′-OMe-RNA antisense oligonucleotide to s-RNY1-3p or control. Cells were left unstimulated or stimulated with 0.25 mM of PA for 18 hr. The data were normalized using Renilla activity. Data are presented as mean and s.d. (n=4). Student's t-test: **P<0.01.
NIH-3T3 cells (80% confluence in 96-well plates) were transfected with Lipofectamine 2000® according to the manufacturer's instructions. Luciferase reporter assay was performed as previously described (Repetto, E., et al. (2012). PLoS genetics 8, e1002823).

BMDMs [4] = assay: Quantitative RT-PCR of s-RNYs from the medium of BMDMs; assay type: cell-based, mouse; conditions: 0.25 mM PA 18 hr, FIG. 14B
Method: FIG. 14: (A) Quantitative RT-PCR analysis of the indicated s-RNYs in BMDMs incubated with 0.25 mM of PA the indicated time. The data were normalized by U2 snRNA. (B) Quantitative RT-PCR analysis of the indicated s-RNYs from the medium of BMDMs. Cells were left unstimulated or incubated with 0.25 mM PA for 18 hr. Data were normalized by using the synthetic non-mammalian cel-miR-39, which was added to the samples before the RNA extraction. Data are presented as mean and s.d. (n=8).
RNA expression by quantitative RT-PCR was carried out by using standard procedures. Briefly, for mRNA, total RNA was isolated from cells using Trizol and cDNA was synthesized with a random hexonucleotides using Superscript III (Invitrogen). For s-RNYs detection by quantitative RT-PCR a stem-loop quantitative RT-PCR method was used according to Chen et al. (Chen, C., et al. (2005). Nucleic acids research 33, e179). Briefly, total RNA was isolated from cells, tissue, or immunoprecipitation using Trizol (Invitrogen) according to the manufacturer's instructions. […] This method allows the detection of the s-RNYs derived from only the 5′ end of the precursor by quantitative RT-PCR analysis, namely the s-RNY1-5p and s-RNY3-5p from mouse and s-RNY1-5p, s-RNY3-5p, and s-RNY4-5p from human. Quantitative RT-PCRs using Sybr Green and TaqMan (Invitrogen) for cel-miR-39 were performed on a StepONE system (Applied Biosystem). […]

[5] = tested on: bone marrow-derived macrophages (BMDMs); assay: s-RNY expression in stimulated BMDMs, stem-loop quantitative RT-PCR; assay type: cell-based, mouse; conditions: in combination with thapsigargin (ER stress)
Method: Bone marrow cells were collected from femurs and tibias of ten-week-old male C57BL/6J mice by flushing with sterile medium as previously described (T. Ruggiero, M. et al (2009) FASEB J 23:2898-2908). To differentiate into macrophages, bone marrow cells (10^6) were plated in 10-cm plates in 7 ml of BMDM medium (DMEM supplemented with 20% low-endotoxin fetal bovine serum, 30% L929-cell conditioned medium, 1% I-glutamine, 1% Pen/Strep, 0.5% Na pyruvate, and 0.1% β-mercaptoethanol), and fed with 2.5 ml of fresh medium every 2 days for 7 days. Human primary macrophages were prepared from peripheral blood monocytes obtained from healthy donors (Jacquel, A., et al. (2012). Blood 119, 4527-4531) in agreement with the French legislation on human biomedical research. All participants provided written informed consent attesting they had received all the information they needed about the study and they agreed in accordance with appropriate national regulations.
RNA expression by quantitative RT-PCR was carried out by using standard procedures. Briefly, for mRNA, total RNA was isolated from cells using Trizol and cDNA was synthesized with a random hexonucleotides using Superscript III (Invitrogen). For s-RNYs detection by quantitative RT-PCR a stem-loop quantitative RT-PCR method was used according to Chen et al. (Chen, C., et al. (2005). Nucleic acids research 33, e179). Briefly, total RNA was isolated from cells, tissue, or immunoprecipitation using Trizol (Invitrogen) according to the manufacturer's instructions. RNA extraction from extracellular medium, blood plasma, and serum was performed as previously described (Turchinovich, A., et al (2011). Nucleic acids research 39, 7223-7233). Briefly, 1.2 ml of Trizol LS were added to 0.4 ml of blood plasma, serum or media. Then (i) 5 pg of synthetic miRNA-39 from Caenorhabditis elegans (cel-miR-39) were added as a spike-in control for purification efficiency; (ii) 1.2 μl of glycogen (10 mg/ml) were added to enhance the efficiency of RNA column binding. Purification of extracted total RNA was performed with miRNeasy columns (Qiagen) according to the manufacturer's instructions. RNA was eluted in 30 μl of RNase-free water. cDNA was synthesized using a hairpin long oligonucleotide. This method allows the detection of the s-RNYs derived from only the 5′ end of the precursor by quantitative RT-PCR analysis, namely the s-RNY1-5p and s-RNY3-5p from mouse and s-RNY1-5p, s-RNY3-5p, and s-RNY4-5p from human. Quantitative RT-PCRs using Sybr Green and TaqMan (Invitrogen) for cel-miR-39 were performed on a StepONE system (Applied Biosystem). The primer sequences are detailed in Table 1. […]

p38, NF-κB, JNK = assay: p38, NF-κB and JNK signaling activation in BMDMs; assay type: cell-based, mouse; conditions: time course, data not shown
Method: BMDMs and NIH-3T3 cells (ATCC) were transiently transfected for 48 hr with Lipofectamine 2000 (Invitrogen) according to the manufacturer's instructions. siRNAs were transfected at the final concentration of 24 nM, while 2′-OMe-RNA antisense oligonucleotides to s-RNYs (Eurogentec) were transfected at the final concentration of 100 nM. When required, cell lysates were incubated at room temperature with RNase A (10 mg/ml, Ambion) for 30 min. Three-hundred micrograms of protein was immunoprecipitated with Protein A-Dynabeads (Invitrogen)-coupled antibodies for 16 hr at 4° C. with rotation. Immunoprecipitates were washed four times with lysis buffer and resuspended in SDS protein loading buffer. Proteins were subjected to SDS-PAGE, electroblotted onto PVDF membranes, and probed with different antibodies as indicated.
Recombinant Ago2 and hnRNP A1 were purchased from Sino Biological Inc. and CliniSciences, respectively, while recombinant KSRP was a gift from Dr. R. Gherzi. Mouse monoclonal anti-hnRNP A1 (4B10), mouse monoclonal anti-c-Myc (9E10), goat anti-actin (1-19), and IκBα (H-4) antibodies were purchased from SantaCruz. Rabbit anti-La/SSB and anti-Ro60 (TROVE2) antibodies were purchased from GmbH. Anti-Ago2 antibody was purchased from Wako Chemicals while rabbit anti-KLF2 and anti-NOS2A antibodies were from Millipore. Anti-KSRP antibody was a gift from Dr. R. Gherzi. […]

BMDMs [6] = assay: Apoptosis assay in BMDMs (annexin V / Dapi, flow cytometry); assay type: cell-based, mouse; conditions: FIGS. 13A and 13B
Method: FIG. 13: Apoptotic data by fluorocytometry for BMDMs overexpressing s-RNYs, transfected with either 2′-OMe-RNA antisense oligonucleotides to s-RNYs or control. BMDMs were stimulated with 0.25 mM of PA for 18 hr (A), 0.25 μM thapsigargin (Tg) in combination with […] of oxLDL for 28 hr (B), or left unstimulated (C). Percentage of apoptotic and necrotic cells was determined by staining with Dapi and annexin […]. Data are presented as mean and s.d. (n=3). Apoptosis was assayed in BMDMs by staining with Alexa 488-conjugated annexin V and Dapi as previously described (Jacquel, A., et al., 2012. Blood 119(19): 4527-4531). The number of annexin V- and Dapi-positive cells was counted and expressed as a percent of the total number of cells from duplicate wells.

[7] = tested on: human primary macrophages; assay: Northern blot of s-RNYs in human primary macrophages; assay type: cell-based; conditions: data not shown

5′-GUUGUAUUGUUUAGCGAUU-3′ (listed as RNA, chemistry not given here) [siAgo2]
potential target mRNAs whose expression was Ago2 and s-RNYs dependent [1]: at least 20/32

CCCCCCCCCCCCCCCC(=O)O [PA, palmitic acid]
time by which s-RNY expression was induced ([2]; 0.25 mM PA, FIG. 14A): ≤ 9 h
s-RNY expression [2]: induced
luciferase activity of the mutant reporter construct [3]: not affected
luciferase activity of the reporter construct containing the wt sequence [3]: repressed
enrichment of s-RNYs in extracellular environment compared to control (BMDMs [4]): ~100 fold
s-RNY expression [5]: increased markedly
NF-κB activation (IκBα degradation) (p38, NF-κB, JNK; after 9 hr of treatment): enhanced
p38 activation (p38 phosphorylation) (p38, NF-κB, JNK; starting by 9 hr): enhanced
apoptosis in macrophages treated with pro-atherogenic stimuli (BMDMs [6]): apoptosis activation

CN[C@@H]1C[C@H]2O[C@@](C)([C@@H]1OC)n1c3ccccc3c3c4c(c5c6ccccc6n2c5c31)C(=O)NC4 [STS, staurosporine]
expression of s-RNYs (s-RNY1-5p, s-RNY1-3p, s-RNY3-5p and s-RNY4-5p) [7]: induced

CCCCC/C=C\C/C=C\CCCCCCCC(=O)O [linoleic acid]
s-RNY expression [2]: did not induce
s-RNY expression [5]: did not induce

CCCCCCCC/C=C\CCCCCCCC(=O)O [oleic acid]
s-RNY expression [2]: did not induce
s-RNY expression [5]: did not induce

CCCCCCCCCCCCCCCCCC(=O)O [stearic acid]
s-RNY expression [2]: induced
s-RNY expression [5]: increased markedly

C/C=C(/C)C(=O)O[C@H]1C(C)=C2[C@H]([C@@H]1OC(=O)CCCCCCC)[C@@](C)(OC(C)=O)C[C@H](OC(=O)CCC)[C@@]1(O)[C@H]2OC(=O)[C@@]1(C)O [thapsigargin]
s-RNY expression [2]: no effect

Reference: patent publication US10208351B2, “RNY-derived small RNAs as biomarkers for atherosclerosis-related disorders” (INSTITUT NATIONAL DE LA SANTE ET DE LA RECHERCHE MEDICALE …, priority 2013, dated 2019)
